By inhibition is commonly meant the relative decrease from the control value, in per cent. As a reminder, the pIC50 is −log10 of the IC50, conventionally taken in molar units. Usually AUC(0-t) stands for exposure summed from dosing to a finite time, without extrapolation to infinity. A word on the Cmax: it is the maximum level reached in the sampled fluid or tissue. A word on the IC50: it is the concentration that inhibits the measured activity by half. Low values mean inhibition by little substance, high ones a need for much substance. By half-life is commonly meant the time needed for the level to fall by half in the phase considered. A low value points to fast loss.

For one data set, the target named is T1, smooth muscle myosin S1 (Gallus gallus, UniProt P10587).
T1 construct: purchased Cytoskeleton #CS-MYS05
T1 sequence (P10587 84-789 limits assumed): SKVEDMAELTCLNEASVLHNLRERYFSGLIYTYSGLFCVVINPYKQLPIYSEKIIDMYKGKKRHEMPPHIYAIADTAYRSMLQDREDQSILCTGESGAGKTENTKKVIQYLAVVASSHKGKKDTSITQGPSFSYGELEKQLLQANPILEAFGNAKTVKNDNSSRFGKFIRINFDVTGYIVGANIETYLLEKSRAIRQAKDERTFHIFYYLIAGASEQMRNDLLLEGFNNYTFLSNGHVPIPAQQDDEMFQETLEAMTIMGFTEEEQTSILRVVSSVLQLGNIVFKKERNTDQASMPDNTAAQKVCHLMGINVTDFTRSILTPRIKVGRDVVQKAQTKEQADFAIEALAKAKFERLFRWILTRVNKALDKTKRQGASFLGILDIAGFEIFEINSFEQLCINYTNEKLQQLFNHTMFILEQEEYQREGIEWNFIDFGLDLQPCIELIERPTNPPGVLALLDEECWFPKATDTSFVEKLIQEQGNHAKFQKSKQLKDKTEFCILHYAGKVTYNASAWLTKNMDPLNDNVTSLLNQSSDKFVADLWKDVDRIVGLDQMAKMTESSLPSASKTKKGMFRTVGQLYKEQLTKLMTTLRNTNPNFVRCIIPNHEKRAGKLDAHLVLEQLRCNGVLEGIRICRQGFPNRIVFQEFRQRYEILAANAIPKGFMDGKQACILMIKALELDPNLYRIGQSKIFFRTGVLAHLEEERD
T1 sequence (P02607 whole entry partner): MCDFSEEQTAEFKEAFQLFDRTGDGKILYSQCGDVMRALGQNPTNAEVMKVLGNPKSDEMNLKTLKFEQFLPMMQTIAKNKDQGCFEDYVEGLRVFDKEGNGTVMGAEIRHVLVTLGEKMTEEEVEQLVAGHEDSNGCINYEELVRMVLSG
Briefly: Inhibition of hydrolysis of ATP by smooth muscle myosin S1 fragments. It is filed as biochemical. The following applies: 100 μM compound. In outline: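 Smooth muscle myosin S1 fragment (0.7 mg/mL in PM12 buffer with 1 mM DTT) was mixed with compound and F-actin polymer prepared from cardiac actin, then 5 mM ATP working solution started the reaction at 37° C. for 20 min. Released Pi was measured with CytoPhos reagent at 650 nm against a standard curve, and inhibition was calculated relative to positive control wells.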

Data set [1] deals with rabbit skeletal muscle myosin. Put plainly: Inhibition of hydrolysis of ATP by rabbit skeletal muscle myosin. The data set is classed as biochemical. The essentials: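 Actin-activated ATPase: F-actin plus rabbit skeletal myosin II with compound in Tris-HCl pH 7.5/KCl/EGTA/MgCl2, started with ATP (3 mM working stock) and run 60 min at 37 °C. Released Pi measured by CytoPhos absorbance at 650 nm against a phosphate standard curve; IC50 fitted from inhibition relative to uninhibited myosin.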

The nature of data set [2]: Pharmacokinetic experiment in mice. The conditions noted are these: male, C57, po; mouse plasma, i.g. (10 mg/kg). It is filed as in vivo. As for the experimental part:
(§1) 1. Experimental animals: Male C57 mice, 22-25 g, 6 mice/compound. Purchased from Chengdu Ddossy Experimental Animals Co., Ltd.
2. Experimental design: On the day of the experiment, 12 C57 mice were randomly grouped according to their body weight. The animals were fasted with water available for 12 to 14 h one day before the administration and were fed 4 h after the administration.
Before and after the administration, 0.06 mL of blood was taken from the orbit of the animals under isoflurane anesthesia and placed in an EDTAK2 centrifuge tube. The blood was centrifuged at 5000 rpm and 4° C. for 10 min to collect the plasma. The blood collection time points for the intravenous group and intragastric administration group were: 0 m, 5 m, 15 min, 30 min, 1 h, 2 h, 4 h, 7 h and 24 h. Before analysis and detection, all samples were stored at −80° C., and a quantitative analysis of samples was performed using LC-MS/MS.

A further data set deals with T2, cardiac myosin SII (Bos taurus, UniProt Q9BE39).
T2 construct: purchased Cytoskeleton #MYO3-A
T2 sequence (Q9BE39 whole entry): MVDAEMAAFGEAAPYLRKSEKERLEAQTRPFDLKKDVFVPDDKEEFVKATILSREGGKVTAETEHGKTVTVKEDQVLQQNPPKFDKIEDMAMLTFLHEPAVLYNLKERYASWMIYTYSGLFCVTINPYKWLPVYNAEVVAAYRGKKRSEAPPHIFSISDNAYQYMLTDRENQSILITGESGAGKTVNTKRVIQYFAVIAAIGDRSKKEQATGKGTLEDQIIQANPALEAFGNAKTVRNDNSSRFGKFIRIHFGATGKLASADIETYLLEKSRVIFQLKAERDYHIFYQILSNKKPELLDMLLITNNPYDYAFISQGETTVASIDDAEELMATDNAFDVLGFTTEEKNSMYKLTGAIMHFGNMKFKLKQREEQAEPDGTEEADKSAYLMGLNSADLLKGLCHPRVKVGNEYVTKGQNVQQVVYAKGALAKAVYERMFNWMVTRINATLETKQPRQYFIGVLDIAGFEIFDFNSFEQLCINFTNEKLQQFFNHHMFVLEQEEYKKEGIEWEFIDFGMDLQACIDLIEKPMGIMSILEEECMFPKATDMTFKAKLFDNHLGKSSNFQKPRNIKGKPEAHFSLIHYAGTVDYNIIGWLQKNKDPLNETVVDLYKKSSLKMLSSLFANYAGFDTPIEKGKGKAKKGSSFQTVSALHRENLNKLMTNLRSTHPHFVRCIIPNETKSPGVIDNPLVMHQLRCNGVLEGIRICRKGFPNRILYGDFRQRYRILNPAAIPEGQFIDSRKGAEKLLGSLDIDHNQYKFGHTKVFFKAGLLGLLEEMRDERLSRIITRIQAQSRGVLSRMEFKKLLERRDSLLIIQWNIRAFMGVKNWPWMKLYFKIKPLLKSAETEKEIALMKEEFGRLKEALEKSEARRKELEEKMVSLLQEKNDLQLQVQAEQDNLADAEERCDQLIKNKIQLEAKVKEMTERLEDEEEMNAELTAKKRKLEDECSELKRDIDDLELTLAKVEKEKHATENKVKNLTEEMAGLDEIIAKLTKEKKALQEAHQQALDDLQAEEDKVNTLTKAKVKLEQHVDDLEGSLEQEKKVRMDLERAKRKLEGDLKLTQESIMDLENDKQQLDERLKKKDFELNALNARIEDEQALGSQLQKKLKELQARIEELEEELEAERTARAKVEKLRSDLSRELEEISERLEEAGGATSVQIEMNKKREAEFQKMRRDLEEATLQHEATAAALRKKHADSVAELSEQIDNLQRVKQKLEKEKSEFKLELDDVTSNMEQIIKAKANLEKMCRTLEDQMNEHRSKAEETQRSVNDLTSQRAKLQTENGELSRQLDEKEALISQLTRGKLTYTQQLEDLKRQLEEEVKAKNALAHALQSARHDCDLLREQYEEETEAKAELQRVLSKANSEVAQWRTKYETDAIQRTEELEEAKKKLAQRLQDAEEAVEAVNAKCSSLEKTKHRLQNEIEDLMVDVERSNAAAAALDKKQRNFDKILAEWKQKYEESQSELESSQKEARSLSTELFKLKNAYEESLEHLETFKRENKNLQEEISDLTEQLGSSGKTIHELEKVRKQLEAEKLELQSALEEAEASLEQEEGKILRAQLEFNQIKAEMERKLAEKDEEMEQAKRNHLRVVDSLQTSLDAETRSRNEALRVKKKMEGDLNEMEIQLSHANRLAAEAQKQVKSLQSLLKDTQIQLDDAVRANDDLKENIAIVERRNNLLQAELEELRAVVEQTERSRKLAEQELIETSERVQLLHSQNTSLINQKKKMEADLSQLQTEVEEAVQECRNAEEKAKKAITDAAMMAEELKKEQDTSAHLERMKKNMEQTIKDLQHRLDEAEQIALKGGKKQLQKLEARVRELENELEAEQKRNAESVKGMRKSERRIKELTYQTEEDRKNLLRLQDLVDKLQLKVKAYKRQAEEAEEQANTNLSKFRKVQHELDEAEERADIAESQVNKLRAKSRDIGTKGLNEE
T2 sequence (P85100 whole entry partner): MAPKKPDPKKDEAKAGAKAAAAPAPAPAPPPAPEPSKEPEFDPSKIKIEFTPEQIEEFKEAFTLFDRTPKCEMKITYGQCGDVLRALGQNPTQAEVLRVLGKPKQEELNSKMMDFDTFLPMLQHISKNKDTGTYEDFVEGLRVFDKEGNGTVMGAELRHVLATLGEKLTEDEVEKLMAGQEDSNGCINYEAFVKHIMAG
T2 sequence (Q3SZE5 whole entry partner): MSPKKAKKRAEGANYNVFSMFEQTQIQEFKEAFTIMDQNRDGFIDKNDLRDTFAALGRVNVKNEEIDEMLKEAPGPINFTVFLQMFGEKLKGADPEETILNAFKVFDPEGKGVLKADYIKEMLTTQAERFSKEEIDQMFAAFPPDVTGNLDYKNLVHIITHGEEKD
Put plainly: Inhibition of hydrolysis of ATP by cardiac myosin SII. The data set is classed as biochemical. The following applies: 100 μM compound. In outline: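 Bovine cardiac myosin with preformed F-actin in 15 mM Tris-HCl pH 7.5, 10 mM KCl, 2 mM MgCl2, 0.1 mM EGTA; compounds at 100 μM final, ATP from 3 mM working solution, 2 h at 37 °C. Released Pi measured colorimetrically at 650 nm against a Pi standard curve; % inhibition vs. DMSO control.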

The next data set addresses T3, CYP2C19 (Homo sapiens, UniProt P33261).
T3 construct: incubated with human liver microsomes and test compounds of different concentrations; from tissue; host or cells: human liver microsomes
Briefly: CYP450 enzyme inhibition, human liver microsomes, CYP2C19. The data set is classed as in vitro ADME. The method, then:
(§2) The purpose of this study was to evaluate the effect of the test compound on the activity of five isoenzymes (CYP1A2, CYP2C9, CYP2C19, CYP2D6 and CYP3A4) of human liver microsomal cytochrome P450 (CYP) by using an in vitro testing system. The specific probe substrates of CYP450 isoenzymes were incubated with human liver microsomes and test compounds of different concentrations, and reduced nicotinamide adenine dinucleotide phosphate (NADPH) was added to initiate the reaction. After the completion of the reaction, the sample was treated and liquid chromatography-tandem mass spectrometry (LC-MS/MS) was used to quantitatively detect metabolites produced by specific substrates, changes in CYP enzyme activity were determined, and IC50 value was calculated to evaluate the inhibitory potential of the test compound on each CYP enzyme subtype.

A further data set concerns the target T4, CYP2D6 (Homo sapiens, UniProt P10635).
T4 construct: incubated with human liver microsomes and test compounds of different concentrations; from tissue; host or cells: human liver microsomes
Put plainly: CYP450 enzyme inhibition, human liver microsomes, CYP2D6. It is filed as in vitro ADME. The method, then: as §2

Another data set concerns the target T5, CYP1A2 (Homo sapiens, UniProt P05177).
T5 construct: incubated with human liver microsomes and test compounds of different concentrations; from tissue; host or cells: human liver microsomes
T5 sequence (P05177 1-516): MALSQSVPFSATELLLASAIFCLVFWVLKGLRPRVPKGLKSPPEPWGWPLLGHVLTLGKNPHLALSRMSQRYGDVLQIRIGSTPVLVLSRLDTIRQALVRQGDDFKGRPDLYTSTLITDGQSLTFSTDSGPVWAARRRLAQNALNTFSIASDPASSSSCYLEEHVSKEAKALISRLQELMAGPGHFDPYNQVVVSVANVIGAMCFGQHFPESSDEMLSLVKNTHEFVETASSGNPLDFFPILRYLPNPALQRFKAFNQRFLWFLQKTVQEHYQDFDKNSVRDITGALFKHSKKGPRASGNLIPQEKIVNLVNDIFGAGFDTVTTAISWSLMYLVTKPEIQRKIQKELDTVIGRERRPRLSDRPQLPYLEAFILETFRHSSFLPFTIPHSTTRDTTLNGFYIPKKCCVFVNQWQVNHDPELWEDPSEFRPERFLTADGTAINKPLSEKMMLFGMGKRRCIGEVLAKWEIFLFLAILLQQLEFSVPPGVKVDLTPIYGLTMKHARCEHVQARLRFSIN
Put plainly: CYP450 enzyme inhibition, human liver microsomes, CYP1A2. The data set is classed as in vitro ADME. The method, then: as §2
On the technique in general: Liver microsomes are vesicles of endoplasmic reticulum, rich in cytochrome P450 enzymes.

A further data set addresses T6, CYP3A4 (Homo sapiens, UniProt P08684).
T6 construct: incubated with human liver microsomes and test compounds of different concentrations; from tissue; host or cells: human liver microsomes
Put plainly: CYP450 enzyme inhibition, human liver microsomes, CYP3A4. The data set is classed as in vitro ADME. As for the experimental part: as §2

A further data set deals with T7, CYP2C9 (Homo sapiens, UniProt P11712).
T7 construct: incubated with human liver microsomes and test compounds of different concentrations; from tissue; host or cells: human liver microsomes
T7 sequence (P11712 whole entry): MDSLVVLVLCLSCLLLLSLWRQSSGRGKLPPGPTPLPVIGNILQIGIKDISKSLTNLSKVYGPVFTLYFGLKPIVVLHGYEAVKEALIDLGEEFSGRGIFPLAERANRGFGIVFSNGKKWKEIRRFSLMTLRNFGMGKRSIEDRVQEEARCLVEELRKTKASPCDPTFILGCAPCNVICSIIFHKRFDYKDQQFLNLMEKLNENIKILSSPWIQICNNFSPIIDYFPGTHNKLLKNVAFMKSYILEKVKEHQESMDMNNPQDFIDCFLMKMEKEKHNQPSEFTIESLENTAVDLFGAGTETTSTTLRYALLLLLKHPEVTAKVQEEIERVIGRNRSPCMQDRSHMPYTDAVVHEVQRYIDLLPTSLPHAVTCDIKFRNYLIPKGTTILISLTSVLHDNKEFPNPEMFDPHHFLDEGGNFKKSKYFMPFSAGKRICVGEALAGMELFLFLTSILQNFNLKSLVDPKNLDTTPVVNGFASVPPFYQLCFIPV
Put plainly: CYP450 enzyme inhibition, human liver microsomes, CYP2C9. It is filed as in vitro ADME. The method, then: as §2

A short description of data set [3]: Pharmacokinetic experiment in mouse muscle tissue (tibialis anterior / plasma). It is filed as in vivo, C57 mice. The conditions noted are these: male, C57, tibialis anterior muscle / plasma, oral, intragastric 10 mg/kg, read-out: Ratio = Tibialis anterior Conc./Plasma Conc. As for the experimental part:
as §1
2. Experimental design: On the day of the experiment, C57 mice were randomly grouped according to their body weight. The animals were fasted with water available for 12 to 14 h one day before the administration and were fed 4 h after the administration. Administration was performed as per Table 10.1.

[4] abbreviates: inhibition of hydrolysis of ATP, class symbols, read-out: Rabbit skeletal muscle myosin (IC50).
Setting [5] is: read-out: IC50 for inhibition of hydrolysis of ATP by rabbit skeletal muscle myosin.

Molecules are shown by their SMILES. pIC50: −log10 of the molar value. Read-outs that look alike come from different tables or passages of the source.

T3 sequence (P33261 whole entry): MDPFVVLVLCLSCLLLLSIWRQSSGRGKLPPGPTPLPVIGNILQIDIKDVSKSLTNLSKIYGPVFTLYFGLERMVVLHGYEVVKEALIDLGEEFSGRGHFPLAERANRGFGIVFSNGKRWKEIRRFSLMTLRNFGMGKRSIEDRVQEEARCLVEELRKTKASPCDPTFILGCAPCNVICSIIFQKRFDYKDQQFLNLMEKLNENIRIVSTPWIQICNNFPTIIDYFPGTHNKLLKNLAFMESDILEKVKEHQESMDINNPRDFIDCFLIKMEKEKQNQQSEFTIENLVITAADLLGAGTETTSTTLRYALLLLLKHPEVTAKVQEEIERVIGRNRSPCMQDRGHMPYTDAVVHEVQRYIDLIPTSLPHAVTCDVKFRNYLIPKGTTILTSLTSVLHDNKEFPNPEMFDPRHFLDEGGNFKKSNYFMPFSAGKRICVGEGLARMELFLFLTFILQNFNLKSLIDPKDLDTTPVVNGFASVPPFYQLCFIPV
T6 sequence (P08684 whole entry): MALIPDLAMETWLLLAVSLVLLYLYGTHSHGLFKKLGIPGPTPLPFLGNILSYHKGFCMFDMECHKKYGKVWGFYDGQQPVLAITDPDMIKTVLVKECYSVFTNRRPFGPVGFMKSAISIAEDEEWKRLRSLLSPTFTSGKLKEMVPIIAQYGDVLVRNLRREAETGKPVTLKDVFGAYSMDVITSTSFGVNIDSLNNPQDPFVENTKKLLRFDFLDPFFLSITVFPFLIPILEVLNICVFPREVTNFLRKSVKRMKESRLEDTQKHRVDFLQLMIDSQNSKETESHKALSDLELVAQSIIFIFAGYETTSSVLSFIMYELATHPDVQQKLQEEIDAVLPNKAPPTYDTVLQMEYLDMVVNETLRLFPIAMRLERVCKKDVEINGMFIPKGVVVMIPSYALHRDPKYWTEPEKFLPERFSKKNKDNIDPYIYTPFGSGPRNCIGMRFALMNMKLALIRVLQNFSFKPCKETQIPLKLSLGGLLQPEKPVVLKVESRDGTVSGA

Turning to `O=c1ccc(-c2cnc(OCC(F)(F)F)nc2)nn1Cc1ccc2c(c1)C1CC1C2` (single isomer, unassigned) [Compound 160], at smooth muscle myosin S1, the inhibition at 100 µM came out at 3%. Further, in data set [1] (setting [4]), the pIC50 was above 5.60. In data set [2], this compound gave an exposure AUC(0-t) of 8170 ng·h/mL and a Cmax of 1380 ng/mL. For the same compound, the inhibition at 100 µM against cardiac myosin SII is 8%.
Regarding `O=c1ccc(-c2cnc(OCC(F)(F)F)nc2)nn1Cc1ccc2c(c1)CC1CC21` (single isomer, unassigned) [Compound 162], the figures for the inhibition at 100 µM against smooth muscle myosin S1 and at cardiac myosin SII were 16% and 13%, respectively. Besides, the pIC50 in data set [1] (setting [4]) is above 5.60; in data set [1] (setting [5]), 6.10. In [2], the area under the curve AUC(0-t) stood at 6180 ng·h/mL. Further, the highest concentration (Cmax) in [2] is 688 ng/mL.
With `O=C1Cc2cc(Cn3nc(-c4cnc(OCC(F)(F)F)nc4)ccc3=O)ccc21` [Compound 72], on smooth muscle myosin S1, the inhibition at 100 µM was found to be 23.6%. Further, the IC50 against CYP2C19, against CYP2D6, at CYP1A2, on CYP3A4 and against CYP2C9 was above 30 µM each time. In addition, the pIC50 was above 5.60 in data set [1] (setting [4]) and 6.25 in data set [1] (setting [5]).
In the case of `Cn1cc(Oc2ncc(-c3ccc(=O)n(Cc4ccc5c(c4)CCC5)n3)cn2)cn1` [Compound 128], on smooth muscle myosin S1, the inhibition at 100 µM was -2%. The negative-log IC50 (pIC50) in data set [1] (setting [4]) is 4.70 to 5.60. In data set [2], this compound displayed an AUC(0-t) of 8320 ng·h/mL and a Cmax of 1090 ng/mL. Further, on cardiac myosin SII, the inhibition at 100 µM is -10%.
Consider `O=C1CCc2ccc(Cn3nc(-c4cnc(OCC5CC5)nc4)ccc3=O)cc21` [Compound 129], for which the inhibition at 100 µM against smooth muscle myosin S1 was -2%; against cardiac myosin SII it was 22%. Moreover, the negative-log IC50 (pIC50) in data set [1] (setting [4]) is above 5.60; in data set [1] (setting [5]), 6.70. Further, the Kp at 6 h in [3] amounted to 146. In addition, the Kp at 24 h in [3] was found to be 178. Also, the half-life in data set [2] is 41.9 h.
Regarding `O=C1CCc2ccc(Cn3nc(-c4cnc(OCC5(F)CC5)nc4)ccc3=O)cc21` [Compound 135], the inhibition at 100 µM against smooth muscle myosin S1 amounted to 8%. Further, the pIC50 in [1] (setting [4]) was above 5.60. The pIC50 in [1] (setting [5]) was 6.52. In [3], the Kp at 6 h came to 133 and the Kp at 24 h was found to be 165. This compound also showed a half-life in data set [2] of 66.8 h.
Take `O=C1CCc2c(F)cc(Cn3nc(-c4cnc(OCC(F)(F)F)nc4)ccc3=O)cc21` [Compound 153]: the inhibition at 100 µM against smooth muscle myosin S1 is -12%. For the same compound, the IC50 on CYP2C19, against CYP2D6, at CYP1A2, at CYP3A4 and against CYP2C9 was above 30 µM in each case. Moreover, the values for the negative-log IC50 (pIC50) in data set [1] (setting [4]) and in data set [1] (setting [5]) were above 5.60 and 6.30, respectively. The Kp at 6 h in data set [3] was determined as 73.3. In addition, in [3], the Kp at 24 h worked out at 96.7.
In the case of `O=C1CCc2c(F)cc(Cn3nc(-c4cnc(O[C@@H]5CCOC5)nc4)ccc3=O)cc21` [Compound 163], the inhibition at 100 µM at smooth muscle myosin S1 turned out to be 14%. Further, the IC50 on CYP2C19, at CYP2D6, against CYP1A2, on CYP3A4 and at CYP2C9 was above 30 µM throughout. Also, the negative logarithm of the IC50 (pIC50) in [1] (setting [4]) was above 5.60.
For the compound `Cc1cc(Cn2nc(-c3cnc(OCC(F)(F)F)nc3)ccc2=O)cc2c1CCC2=O` [Compound 169], the IC50 against CYP2C19, against CYP2D6, on CYP1A2, against CYP3A4 and on CYP2C9 was above 30 µM in each case. The pIC50 in data set [1] (setting [4]) is above 5.60; in [1] (setting [5]) it was 6.10.
For the compound `O=C1CCc2c(Cl)cc(Cn3nc(-c4cnc(C5CC5)nc4)ccc3=O)cc21` [Compound 170], the IC50 at CYP2C19, at CYP2D6, against CYP1A2, on CYP3A4 and against CYP2C9 was above 30 µM in each case. In addition, the pIC50 is above 5.60 in [1] (setting [4]) and 6.05 in data set [1] (setting [5]).
Consider `O=C1CCc2c(Cl)cc(Cn3nc(-c4cnc(O[C@@H]5CCOC5)nc4)ccc3=O)cc21` [Compound 171], for which the IC50 on CYP2C19, against CYP2D6, on CYP1A2, against CYP3A4 and against CYP2C9 was above 30 µM throughout. The negative logarithm of the IC50 (pIC50) in data set [1] (setting [4]) was above 5.60; in [1] (setting [5]) it was 6.05. Further, the Kp at 6 h in [3] is 90.1. For the same compound, the Kp at 24 h in [3] came to 161.
In the case of `O=C1CCc2c(Cl)cc(Cn3nc(-c4cnc(O[C@H]5CCOC5)nc4)ccc3=O)cc21` [Compound 172], the IC50 on CYP2C19, at CYP2D6, against CYP1A2, on CYP3A4 and on CYP2C9 was above 30 µM each time. Also, the results for the pIC50 in data set [1] (setting [4]) and in data set [1] (setting [5]) were above 5.60 and 6.00, respectively. Moreover, in data set [3], the Kp at 6 h was found to be 67. Besides, the Kp at 24 h in data set [3] came to 129.
Consider `O=C1CCc2c1cc(Cn1nc(-c3cnc(OCC(F)(F)F)nc3)ccc1=O)cc2C(F)F` [Compound 176], for which the IC50 against CYP2C19, against CYP2D6, against CYP1A2, against CYP3A4 and against CYP2C9 was above 30 µM each time. The negative logarithm of the IC50 (pIC50) in data set [1] (setting [4]) is above 5.60.

(Values after patent US20260217683A1, “PYRIDAZINONE HETEROCYCLIC COMPOUND MYOSIN II INHIBITOR AND USE THEREOF” (Xizang Haisco Pharmaceutical Co., Ltd., priority 2023, published 2026).)
